Experimental data as given in PMC6951815 (Free radical biology & medicine, 2019).

Target: Cys-TrxR (recombinant E. coli thioredoxin reductase) (Escherichia coli, UniProt P0A9P4)
Assay: Trx-dependent reduction assay
Type: biochemical

Cys-TrxR (recombinant E. coli thioredoxin reductase), sequence (P0A9P4 2-321): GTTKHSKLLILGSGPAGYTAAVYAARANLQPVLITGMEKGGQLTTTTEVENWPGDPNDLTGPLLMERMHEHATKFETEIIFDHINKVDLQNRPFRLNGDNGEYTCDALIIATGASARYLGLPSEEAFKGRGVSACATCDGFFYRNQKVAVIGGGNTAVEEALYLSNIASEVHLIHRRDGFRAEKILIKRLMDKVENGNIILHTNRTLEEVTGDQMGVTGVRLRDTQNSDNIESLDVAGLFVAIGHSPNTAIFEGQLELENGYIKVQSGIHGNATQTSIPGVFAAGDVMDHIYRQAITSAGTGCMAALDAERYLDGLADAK

Structure (SMILES): N#CSO [HOSCN]
- IC50: 9.3 µM

Structure (SMILES): N#C[Se]O [HOSeCN]
- IC50: 4.3 µM
